Values after ≈ are worked out from the molar mass of the structure shown. Like-named read-outs stand apart in the source and are kept apart here. Numbered stars: 1 amine (or outer) side, 2 acyl side, 3 side chain; on linkers, the order of the positions; unused ones are H or OH. Bridge positions count the residues as written; N and C are the ends. Square brackets hold non-standard residues; d marks the D form. Peptide text beside a SMILES is read from it. * marks the point of attachment. Orn(4R-OH,5R-OH) = O=C([C@H](C[C@@H](O)[C@@H](O)N[*:3])N[*:1])[*:2]; Tetradecanoyl(10R,12S-Me2) = CC[C@H](C)C[C@H](C)CCCCCCCCC(=O)*; hTyr(3S-OH,4S-OH) = N[C@H](C(=O)O)[C@H](O)[C@@H](O)c1ccc(O)cc1; Gln(3R-OH) = NC(=O)C[C@@H](O)[C@H](N)C(=O)O; Pro(3S-OH) = O=C(O)[C@H]1NCC[C@@H]1O; Hyp = O=C(O)[C@@H]1C[C@@H](O)CN1
Experiments:
Candida albicans = assay: microbe, parasite or virus in culture
Protocol: (§1) In carrying out the assay, Compound I was solubilized in 10 percent dimethyl sulfoxide (DMSO) and diluted to 2560 µg/ml. The compounds were further diluted to 256 µg/ml in YNBD. Then 0.15 ml of the suspension was dispensed to the first row of a 96-well plate (each well containing 0.15 ml of YNDB) resulting in a drug concentration of 128 µg/ml. Two-fold dilutions were then made to obtain final drug concentrations ranging from 128 to 0.06 µg/ml.
(§2) The yeast cultures, maintained on Sabouraud dextrose agar were transferred to YM broth (Difco) and incubated overnight at 35°C with shaking (250 rpm). After incubation, each culture was diluted in sterile water to yield a final concentration of 1-5 x 10⁶ colony forming units (CFU)/ml.
(§3) 96-well microplates were inoculated using a MIC-2000 (Dynotech) which delivers 1.5 µl per well yielding a final inoculum per well of 1.5-7.5 x 10³ cells. The microplates were incubated at 35°C for 24 hours. The minimum inhibitory concentrations (MICs) were recorded as the lowest concentrations of drug showing no visible growth.
(§4) After recording the MIC, the plates were shaken to resuspend the cells. Thereafter, 1.5 µl samples from the wells in the 96-well microplate were transferred to a single well tray containing Sabouraud dextrose agar. The inoculated trays were incubated 24 hours at 28°C and then read. The MFC is defined as the lowest concentration of drug showing no growth or less than 4 colonies per spot.

Candida tropicalis = assay: microbe, parasite or virus in culture; conditions: read-out: Minimum Fungicidal Concentration
Protocol: as §1, §2, §3, §4

Candida parapsilosis = assay: microbe, parasite or virus in culture
Protocol: as §1, §2, §3, §4

Pneumocystis carinii = conditions: dexamethasone-immunosuppressed male C3H/Hej mice; 0.5 mg/kg intraperitoneally twice daily for two weeks; lung tissue
Protocol: In a representative study ten male C3H/Hej mice, weighing 22-24 gms. each, were immunosuppressed by the addition of dexamethasone to the drinking water (8.0 mg/L) for six weeks to induce the development of P. carinii infections. To enhance the infection the mice were also maintained on a low protein diet. At the beginning of the seventh week the mice were divided into two groups. Both groups continued to receive dexamethasone in the drinking water and low protein diet for the remainder of the study. Mice in Group I were injected intraperitoneally twice daily with 0.5 ml of a 20% DMSO solution as a vehicle control. […] The treatment period lasted two weeks.
At the end of the treatment period (a total of eight weeks immunosuppression) the animals were sacrificed and the lung tissues removed. The tissue was then processed to determine the number of cysts for each animal.

[1] = Solubility in organic solvents; type: physicochemical; conditions: methanol, ethanol, dimethylformamide, dimethyl sulfoxide, ethyl acetate and the like

CC[C@H](C)C[C@H](C)CCCCCCCCC(=O)N[C@H]1C[C@@H](O)[C@@H](O)NC(=O)[C@@H]2[C@@H](O)CCN2C(=O)[C@H]([C@H](O)CC(N)=O)NC(=O)[C@H]([C@H](O)[C@@H](O)c2ccc(O)cc2)NC(=O)[C@@H]2C[C@@H](O)CN2C(=O)[C@H]([C@@H](C)O)NC1=O [Compound I, 1-[4,5-dihydroxy-N²-(10,12-dimethyl-1-oxotetradecyl)-ornithine]-5-(3-hydroxyglutamine)-6-(3-hydroxyproline)echinocandin B] ({Tetradecanoyl(10R,12S-Me2)}-[Orn(4R-OH,5R-OH)]T[Hyp][hTyr(3S-OH,4S-OH)][Gln(3R-OH)][Pro(3S-OH)]; lactam 1-C)
MFC (Candida albicans; read-out: Minimum Fungicidal Concentration, Candida albicans MY 1028, YNBD medium): 1 µg/mL (≈ 0.939 µM) | MFC (Candida albicans; read-out: Minimum Fungicidal Concentration, Candida albicans MY 1208, YNBD medium): 0.5 µg/mL (≈ 0.469 µM) | MFC (Candida albicans; read-out: Minimum Fungicidal Concentration, Candida albicans MY 1585, YNBD medium): 0.5 µg/mL (≈ 0.469 µM) | MFC (Candida albicans; read-out: Minimum Fungicidal Concentration, Candida albicans MY 1750, YNBD medium): 0.25 µg/mL (≈ 0.235 µM) | MFC (Candida albicans; read-out: Minimum Fungicidal Concentration, Candida albicans MY 1783, YNBD medium): 0.5 µg/mL (≈ 0.469 µM) | MFC (Candida tropicalis): 2 µg/mL (≈ 1.88 µM) | Minimum Fungicidal Concentration (Candida parapsilosis; Candida parapsilosis MY 1010, YNBD medium): 8.0 µg/mL | MFC (Candida parapsilosis; Lodderomyces parapsilosis, read-out: Minimum Fungicidal Concentration): 8 µg/mL (≈ 7.51 µM) | reduced the number of cysts as compared to the control animals (Pneumocystis carinii): 81% | solubility [1]: soluble in organic solvents
